In patent publication US20230390275A1, “APPLICATION OF ESTER GROUP-[…] PR[…] AND METABOLITE THEREOF IN PREPARATION OF DRUG FOR TREATING HEART FAILURE” (CHANGCHUN GENESCIENCE PHARMACEUTICAL CO., LTD., priority 2020, published 2023):

Tests used:
Format in all cases: in vivo, Sprague Dawley rats
heart failure rats [1] = assay: Body weight and organ weight index (heart weight index, brain/heart weight ratio) in myocardial infarction heart failure rats; parameters: Brain weight/heart weight: unit not given here; conditions: 3 mpk p.o. qd for 4 weeks; endpoint; Mean ± SEM, N = 7
Description: • 1. Vehicle (0.5% CMC Na): formulation: 5 g of CMC Na was weighed out, and the volume was made up to 1000 mL with ddwater; the vehicle was obtained by stirring with a stirrer until the CMC Na was dissolved. • 2. EG017: formulation: a proper amount of the sample was weighed out, and a formula amount of the 0.5% CMC Na was added to prepare 1 mg/kg, 3 mg/kg and 10 mg/kg compound; the formulations were obtained by stirring with a stirrer until the sample was dissolved. Administration regimen: one week after animal modeling, sham/myocardial infarction rats were grouped and administered orally once daily for 28 consecutive days in a volume of 10 mL/kg. […]
One week after the modeling of animals, the isoflurane was used for anesthetizing the rats, the Vevo small animal ultrasonic imaging system was used for checking the function of the left ventricle of the model rats, and successful modeling was determined if the LVFE % was reduced by 30%. […]

heart failure rats [2] = assay: Echocardiography of left ventricular function in myocardial infarction heart failure rats; conditions: 3 mpk p.o. qd for 4 weeks; one day after last dose; Mean ± SEM, N = 7
Description: (§1) • 1. Vehicle (0.5% CMC Na): formulation: 5 g of CMC Na was weighed out, and the volume was made up to 1000 mL with ddwater; the vehicle was obtained by stirring with a stirrer until the CMC Na was dissolved. • 2. EG017: formulation: a proper amount of the sample was weighed out, and a formula amount of the 0.5% CMC Na was added to prepare 1 mg/kg, 3 mg/kg and 10 mg/kg compound; the formulations were obtained by stirring with a stirrer until the sample was dissolved. Administration regimen: one week after animal modeling, sham/myocardial infarction rats were grouped and administered orally once daily for 28 consecutive days in a volume of 10 mL/kg.
(§2) After adaptive feeding, on the day of the experiment, the animals were anesthetized by intraperitoneal injection of pentobarbital sodium injection (60 mpk), atropine (0.5 mpk) was injected intraperitoneally to eliminate phlegm, and then the trachea was connected with a breathing machine to assist breathing; the chest was cut open from the place between the third rib and the fourth rib and then expanded with a chest expander; the pericardium was torn open, the left anterior descending coronary artery was ligated with 5-0 silk thread, the ribs and skin were sutured, and then the animals were placed on a heat preservation blanket for recovery after operation. The animals in the Sham group were also subjected to the same operation, except that the ligation with silk thread was not performed. After the operation was finished, all the animals are subjected to intramuscular injection of meloxicam (1 mpk) and gentamicin hydrochloride injection (8 mpk) for analgesia and anti-infection. One day before administration, the rats were subjected to cardiac ultrasonography after anesthesia by isoflurane inhalation (1.5%-5% v/v in oxygen), and the ligation was successful if there was no significant contraction of the anterior wall of the left ventricle, the left ventricular cavity was enlarged, and there was a 30% decrease in left ventricular ejection fraction compared to the normal control group. Successfully modeled rats were selected for subsequent experiments (note: ensure that there were 7 animals in each group after modeling, and 7 animals in the sham group). The rats in each group were subjected to intragastric administration of therapeutic agent once daily for four consecutive weeks. During the experiment, the living state of the animals was observed, and the abnormal conditions were recorded; endpoint index detection and sample collection were performed one day after the last dose.
(§3) One week after the modeling of animals, the isoflurane was used for anesthetizing the rats, the Vevo small animal ultrasonic imaging system was used for checking the function of the left ventricle of the model rats, and successful modeling was determined if the LVFE % was reduced by 30%.
(§4) Except for the Sham group, the animals were divided into 9 groups according to LVEF % and body weight, 7 rats in each group. […]

heart failure rats [3] = assay: Hemodynamics (heart rate, arterial blood pressure, left ventricular pressure) in myocardial infarction heart failure rats; parameters: Dp/dt max / Dp/dt min: unit not given here; conditions: 3 mpk p.o. qd for 4 weeks; one day after last dose; Mean ± SEM, N = 7
Description: as §1, §2, §3, §4

C[C@@](COc1ccc(C#N)cc1)(OC(=O)c1cccnc1)C(=O)Nc1ccc(C#N)c(C(F)(F)F)c1 [EG017, (S)-1-((4-cyano-3-(trifluoromethyl)phenyl)amino)-3-(4-cyanophenoxy)-2-methyl-1-oxopropan-2-yl nicotinate]
Brain weight/heart weight (heart failure rats [1]): 78.3 ± 4.31 | Heart weight index (heart failure rats [1]): 0.376 ± 0.025 g/100 g body weight | CO (heart failure rats [2]): 85.6 ± 9.55 mL/min | EDV (heart failure rats [2]): 477 ± 48.2 µL | ESV (heart failure rats [2]): 238 ± 52.0 µL | FS (heart failure rats [2]): 29.0 ± 3.51 % | LV mass (heart failure rats [2]): 1497 ± 145^ mg | LVEF (heart failure rats [2]): 52.7 ± 5.61 % | LVPWTd (heart failure rats [2]): 2.17 ± 0.17 mm | LVPWTs (heart failure rats [2]): 2.66 ± 0.22 mm | SV (heart failure rats [2]): 238 ± 21.1 µL | DBP (heart failure rats [3]): 76.1 ± 3.02 mmHg | Dp/dt max (heart failure rats [3]): 6630 ± 432 | Dp/dt min (heart failure rats [3]): −6603 ± 707 | HR (heart failure rats [3]): 352 ± 23.3 BPM | LVSP (heart failure rats [3]): 98.5 ± 3.89& mmHg | MBP (heart failure rats [3]): 88.3 ± 3.39 mmHg | SBP (heart failure rats [3]): 98.7 ± 3.62 mmHg
